Laboratory results: PubChem BioAssay (NCI)
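Each compound was tested at five concentrations against cells in 96-well plates for 48 hours. At the TGI there is no net growth.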

Key:
Test in all cases: inhibition of tumour cell growth, NCI panel, 48 h
SK-MEL-2 melanoma = tested on: SK-MEL-2 melanoma
KM12 colon = tested on: KM12 colon
OVCAR-8 ovarian = tested on: OVCAR-8 ovarian
SNB-19 CNS = tested on: SNB-19 CNS
RXF 393 renal = tested on: RXF 393 renal
M19-MEL melanoma = tested on: M19-MEL melanoma
MOLT-4 leukemia = tested on: MOLT-4 leukemia
HS 578T breast = tested on: HS 578T breast
KM20L2 colon = tested on: KM20L2 colon
SR leukemia = tested on: SR leukemia
UACC-257 melanoma = tested on: UACC-257 melanoma
NCI-H23 lung = tested on: NCI-H23 lung
A498 renal = tested on: A498 renal
DMS 273 small cell lung = tested on: DMS 273 small cell lung
SF-295 CNS = tested on: SF-295 CNS
NCI-H522 lung = tested on: NCI-H522 lung
PC-3 prostate = tested on: PC-3 prostate
OVCAR-5 ovarian = tested on: OVCAR-5 ovarian
SF-539 CNS = tested on: SF-539 CNS
RPMI-8226 leukemia = tested on: RPMI-8226 leukemia
SW-620 colon = tested on: SW-620 colon
EKVX NSCLC = tested on: EKVX NSCLC
SK-OV-3 ovarian = tested on: SK-OV-3 ovarian
HL-60(TB) leukemia = tested on: HL-60(TB) leukemia
UO-31 renal = tested on: UO-31 renal
SK-MEL-5 melanoma = tested on: SK-MEL-5 melanoma
BT-549 breast = tested on: BT-549 breast
OVCAR-4 ovarian = tested on: OVCAR-4 ovarian
T-47D breast = tested on: T-47D breast
HOP-18 NSCLC = tested on: HOP-18 NSCLC
SK-MEL-28 melanoma = tested on: SK-MEL-28 melanoma
SNB-75 CNS = tested on: SNB-75 CNS
TK-10 renal = tested on: TK-10 renal
MDA-MB-435 = tested on: MDA-MB-435
COLO 205 colon = tested on: COLO 205 colon
UACC-62 melanoma = tested on: UACC-62 melanoma
NCI-H460 lung = tested on: NCI-H460 lung
CCRF-CEM leukemia = tested on: CCRF-CEM leukemia
DU-145 prostate = tested on: DU-145 prostate
SF-268 CNS = tested on: SF-268 CNS
HCC-2998 colon = tested on: HCC-2998 colon
A549 NSCLC = tested on: A549 NSCLC
HCT-116 colon = tested on: HCT-116 colon
786-0 renal = tested on: 786-0 renal
SN12C renal = tested on: SN12C renal
XF 498 CNS = tested on: XF 498 CNS
NCI-H226 lung = tested on: NCI-H226 lung
DLD-1 colon = tested on: DLD-1 colon
ACHN renal = tested on: ACHN renal
MDA-N = tested on: MDA-N
MCF7 breast = tested on: MCF7 breast
HOP-92 NSCLC = tested on: HOP-92 NSCLC
MALME-3M melanoma = tested on: MALME-3M melanoma
IGROV1 ovarian = tested on: IGROV1 ovarian
MDA-MB-231 breast = tested on: MDA-MB-231 breast
M14 melanoma = tested on: M14 melanoma
NCI/ADR-RES ovarian = tested on: NCI/ADR-RES ovarian
OVCAR-3 ovarian = tested on: OVCAR-3 ovarian
HT29 colon = tested on: HT29 colon
HCT-15 colon = tested on: HCT-15 colon
HOP-62 NSCLC = tested on: HOP-62 NSCLC
LOX IMVI melanoma = tested on: LOX IMVI melanoma
SNB-78 CNS = tested on: SNB-78 CNS
K-562 leukemia = tested on: K-562 leukemia
U251 CNS = tested on: U251 CNS
LXFL 529 NSCLC = tested on: LXFL 529 NSCLC
CAKI-1 renal = tested on: CAKI-1 renal

CN(C)CCC(=O)N1C/C(=C\c2ccc(Cl)c(Cl)c2)C(=O)/C(=C/c2ccc(Cl)c(Cl)c2)C1
TGI (SK-MEL-2 melanoma): 3340 nM
TGI (KM12 colon): 948 nM
TGI (OVCAR-8 ovarian): 752 nM
TGI (SNB-19 CNS): 2130 nM
TGI (RXF 393 renal): 747 nM
TGI (M19-MEL melanoma): 1130 nM
TGI (MOLT-4 leukemia): 1700 nM
TGI (HS 578T breast): 1730 nM
TGI (KM20L2 colon): 1590 nM
TGI (SR leukemia): 9840 nM
TGI (UACC-257 melanoma): 2530 nM
TGI (NCI-H23 lung): 1500 nM
TGI (A498 renal): 4600 nM
TGI (DMS 273 small cell lung): 316 nM
TGI (SF-295 CNS): 824 nM
TGI (NCI-H522 lung): 455 nM
TGI (PC-3 prostate): 398 nM
TGI (OVCAR-5 ovarian): 1690 nM
TGI (SF-539 CNS): 832 nM
TGI (RPMI-8226 leukemia): 485 nM
TGI (SW-620 colon): 349 nM
TGI (EKVX NSCLC): 1530 nM
TGI (SK-OV-3 ovarian): 3760 nM
TGI (HL-60(TB) leukemia): 162 nM
TGI (UO-31 renal): 862 nM
TGI (SK-MEL-5 melanoma): 759 nM
TGI (BT-549 breast): 1700 nM
TGI (OVCAR-4 ovarian): 777 nM
TGI (T-47D breast): 2480 nM
TGI (HOP-18 NSCLC): 2300 nM
TGI (SK-MEL-28 melanoma): 1820 nM
TGI (SNB-75 CNS): 1300 nM
TGI (TK-10 renal): 1580 nM
TGI (MDA-MB-435): 1600 nM
TGI (COLO 205 colon): 636 nM
TGI (UACC-62 melanoma): 1720 nM
TGI (NCI-H460 lung): 1380 nM
TGI (CCRF-CEM leukemia): 738 nM
TGI (DU-145 prostate): 867 nM
TGI (SF-268 CNS): 653 nM
TGI (HCC-2998 colon): 955 nM
TGI (A549 NSCLC): 2050 nM
TGI (HCT-116 colon): 331 nM
TGI (786-0 renal): 323 nM
TGI (SN12C renal): 440 nM
TGI (XF 498 CNS): 2320 nM
TGI (NCI-H226 lung): 1860 nM
TGI (DLD-1 colon): 468 nM
TGI (ACHN renal): 1050 nM
TGI (MDA-N): 840 nM
TGI (MCF7 breast): 701 nM
TGI (HOP-92 NSCLC): 977 nM
TGI (MALME-3M melanoma): 1510 nM
TGI (IGROV1 ovarian): 648 nM
TGI (MDA-MB-231 breast): 799 nM
TGI (M14 melanoma): 979 nM
TGI (NCI/ADR-RES ovarian): 1060 nM
TGI (OVCAR-3 ovarian): 930 nM
TGI (HT29 colon): 495 nM
TGI (HCT-15 colon): 493 nM
TGI (HOP-62 NSCLC): 941 nM
TGI (LOX IMVI melanoma): 278 nM
TGI (SNB-78 CNS): 1660 nM
TGI (K-562 leukemia): 572 nM
TGI (U251 CNS): 437 nM
TGI (LXFL 529 NSCLC): 637 nM
TGI (CAKI-1 renal): 984 nM
